Test results as given in publication PMC10319809, “Chronic UCN2 treatment desensitizes CRHR2 and improves insulin sensitivity” (Nature Communications, 2023).
Several values for one entry are separate records, joined by “and”; a condition that tells them apart may be missing. Equal values may be shown once. Where no end group is shown, it is not given here.

How the values were obtained:
[1] = system: soleus and gastrocnemius muscle; assay: In vivo [3H]2-deoxyglucose uptake in soleus and gastrocnemius muscle; design: species or system mouse; conditions: [3H]2DG; for 2DG Uptake, gastrocnemius muscle: individual animals (Fig. 2I); for 2DG Uptake, soleus muscle: individual animals (Fig. 2J)
Experimental: To determine 2-deoxy-glucose (2DG) uptake in soleus and gastrocnemius muscle, mice were fasted for 5 h and anaesthetized with isoflurane. […] 15 min following 2DG administration, blood was collected via intracardiac stick and soleus and gastrocnemius muscles were dissected and snap frozen in liquid nitrogen. Samples were stored at −80 C until processing. Blood was treated with BaOH2 and ZnSO4 and after centrifugation, radioactivity was determined via liquid scintillation counting (Tri-Carb 5110TR, PerkinElmer, Waltham, MA). Tissue was homogenized and mixed with water or BaOH2 and ZnSO4 to determine total and unphosphorylated 2DG content.

[2] = system: AKT1S1, IRS1, AKT phosphorylation; assay: Western blot of p-AKT1S1, p-IRS1, p-AKT in gastrocnemius muscle; type: in vivo, mouse
Experimental: Animal tissues were snap-frozen in liquid nitrogen and stored at −80 °C. Frozen tissues were homogenized in ice-cold RIPA buffer (Sigma Aldrich, St. Louis, MO), and protein concentrations were determined using a BCA protein assay (Thermo Fisher Scientific, Waltham, MA). Protein extracts were separated on NuPAGE 4–20% Bis-Tris gels (Bio-Rad, Hercules, CA) and blotted onto PVDF membranes (Bio-Rad, Hercules, CA). Membranes were blocked for 1 h at room temperature in TBST (0.1%) containing 5% milk. Membranes were then incubated overnight at 4 °C with primary antibodies against pSer183-AKT1S1, total AKT1S1, pSer3-IRS1, total IRS1, pSer473-AKT, and total AKT (Cell Signaling, Danvers, MA #5936, #2610, #2385, #2382, #4060, and #4691, respectively) diluted 1:1000. Following three washing steps with TBST (0.1%), membranes were incubated with HRP-conjugated secondary antibodies for 1 h at room temperature. After thorough washing, proteins were visualized with SuperSignal West Dura Extended Duration Substrate (Thermo Fisher Scientific, Waltham, MA) on the Bio-Rad ChemiDoc MP. Immunoreactive bands were quantified using Image J Software (NIH).

male mice = assay: Insulin tolerance test (ITT), blood glucose; type: in vivo, mouse; design: dose or concentration left out as unconfirmed; conditions: 0.05, 0.2
Experimental: All metabolic tests were performed using standard protocols on male littermates (aged: 10–14 weeks). For glucose tolerance tests (GTTs), animals were fasted for 8 h with ad libitum access to water. Fasting glucose measurements were taken before […] oral glucose dose. Blood glucose measurements were taken via tail nick using the AlphaTRAK 2 Glucose Monitoring System (Zoetis, Parsippany-Troy Hills, NJ) at 10, 30, 60, and 120 min after dose. Blood was collected for insulin measurement in EDTA tubes (Becton, Dickinson and Company, Franklin Lakes, NJ) and centrifuged to collect plasma (2000 g for 10 min at 4 °C), which was stored at −80 °C until analysis at 10, 30, 60, and 120 min after dose. Insulin levels were measured using an Ultrasensitive Mouse Insulin ELISA (ALPCO, Salem, NH), according to manufacturer’s instructions. For insulin tolerance tests (ITTs), animals were fasted for 8 h and blood glucose was measured before (0 min) and at 30, 60, 90, and 120 min following IP injection of 0.75 IU/kg of insulin (Humulin R, Eli Lilly, Indianapolis, IN). […]

[3] = system: heart, white adipose tissue; assay: In vivo glucose uptake, fluoro-deoxyglucose (FDG), heart and subcutaneous white adipose tissue; design: species or system mouse; conditions: for Glucose Uptake Rate, subcutaneous white adipose tissue (FDG): individual animals (Fig. 2H), 1 mg/kg
Experimental: Mice were fasted 5 h, dosed IP with 1 mg/kg UCN2 or vehicle. 20 min after dosing mice were injected with 2 mg/kg fluoro-deoxyglucose (FDG) +/− 0.75 IU insulin via tail vein. 15 min after the FDG dose animals were anesthetized and tissues and blood were collected and snap frozen. Plasma and tissues were analyzed for FDG, FDG-monophosphate, glucose, and glucose-monophosphate. The quantification of the analytes was performed by liquid chromatography tandem mass spectrometry (LC-MS/MS) using selected reaction monitoring (SRM) on an Applied Biosystems SCIEX (Framingham, MA, USA) 5500 QTrap mass spectrometer operated in negative ionization mode. Chromatography was achieved on a Shimadzu (Kyoto, Japan) HPLC system under reversed phase LC conditions with gradient elution. Calibration standards were prepared in analyte-free matrix, while quality control samples were prepared in pooled tissue homogenate by standard addition. Experimental tissue samples were mechanically homogenized in a methanol solution followed by evaporation under nitrogen and resuspension with injection solvent prior to analysis on the LC-MS/MS system.

WT animals = assay: Blood glucose and plasma insulin 15 min after intraperitoneal UCN2; type: in vivo, mouse; conditions: 1 mg/kg IP, 15 min post-dose; n = 5
Experimental: WT animals were injected IP with 1 mg/kg recombinant UCN2 or an equivalent volume of saline. Blood glucose and plasma insulin measurements were made pre-injection and 15 min post-dose. 20 min after the injection animals were euthanized and gastrocnemius muscle was dissected and snap-frozen in liquid nitrogen. The tissue was pulverized and homogenized in 700 ul SDS-buffer (0.1 M Tris/HCl 7.6, 4% SDS, 0.1 mM DTT), heated for 5 min at 95 °C and sonicated (Bioruptor®Plus Diagenode, 30 sec on-30sec off cycle for 10 cycles). After centrifugation for 10 min at 10,000 x g at 15 °C, the proteins in the supernatant were precipitated with 4X (volumes) ice-cold acetone (−20 °C) and stored at −20 °C overnight. The precipitates were centrifuged for 15 min at 10,000 × g, acetone was decanted, and the resulting pellets were dried for 10 min at room temperature. The pellet was resuspended in 500ul denaturing buffer (8 M urea and 10 mM Tris, pH 8.5) and sonicated (Bioruptor®Plus Diagenode, 30 s on-30 s off cycle for 5 cycles). The protein concentration was determined with a Bradford assay (Bio-Rad, Hercules, CA, USA). The proteins were reduced with dithiothreitol (DTT) 5 mM final concentration for 60 min at 37 °C and alkylated with iodoacetamide (8 mM final concentration) for 45 min at RT in the dark. […]

[4] = UCN2 1 mg/kg IP +Insulin 0.75 IU/kg
[5] = UCN2 1 mg/kg IP +Veh (no insulin)

For “IVLSLDVPIGLLQILLEQARARAAREQATTNARILARVGHC-NH2 (C-terminus assumed) [UCN2, Urocortin 2]”, the “2DG Uptake, gastrocnemius muscle” value [1, 4] was 17.97 µmol/g/h and 16.61 µmol/g/h and 11.65 µmol/g/h and 22.6 µmol/g/h and 21.1 µmol/g/h and 20.95 µmol/g/h and 16.15 µmol/g/h and 12.85 µmol/g/h, the “2DG Uptake, soleus muscle” value [1, 4] was 25.34 µmol/g/h and 15.14 µmol/g/h and 16.51 µmol/g/h and 20.54 µmol/g/h and 24.42 µmol/g/h and 24.35 µmol/g/h and 25.91 µmol/g/h and 18.85 µmol/g/h and the “2DG Uptake, gastrocnemius muscle” value [1, 5] was 2.37 µmol/g/h and 2.36 µmol/g/h and 2.81 µmol/g/h and 1.95 µmol/g/h and 2.97 µmol/g/h and 3.08 µmol/g/h and 2.83 µmol/g/h and 3.26 µmol/g/h. For the same substance, the “2DG Uptake, soleus muscle” value [1, 5] was 2.44 µmol/g/h and 2.26 µmol/g/h and 2.42 µmol/g/h and 2.39 µmol/g/h and 2.31 µmol/g/h and 2.62 µmol/g/h and 3.69 µmol/g/h, the “Relative pAKT1s1/AKT1s1” value ([2]; Fig 5F, UCN2 vs Saline, individual samples) was 0.4889 and 0.4355 and 0.6101 and 0.3366 and the “Relative pIRS1/IRS1” value ([2]; Fig 5G, UCN2 vs Saline, individual samples) was 0.5347 and 0.4912 and 0.4136 and 0.3459. For the same substance, the “Relative pAKT/AKT” value ([2]; Fig 5H, UCN2 vs Saline, individual samples) was 0.5139 and 0.5838 and 0.5951 and 0.5852, the “AKT1S1, IRS1 and AKT phosphorylation, acute treatment” value ([2]; gastrocnemius, acute UCN2, Western blot) was “dephosphorylation” and the “effect of increasing doses in ITT” value (male mice) was “decreasing rates of glucose uptake in response to insulin injection”. The “insulin-stimulated glucose uptake in heart, WAT and SKM in vivo” value ([3]; 1 mg/kg IP UCN2, SKM by [3H]2DG) was “decreased insulin-stimulated glucose uptake”, the “Glucose Uptake Rate, subcutaneous white adipose tissue (FDG)” value ([3]; UCN2 1 mg/kg IP +Insulin 0.75 IU) was 0.1568 ng/g tissue/min and 0.1229 ng/g tissue/min and 0.1122 ng/g tissue/min and 0.1603 ng/g tissue/min and 0.108 ng/g tissue/min and 0.2201 ng/g tissue/min and 0.1273 ng/g tissue/min and 0.0896 ng/g tissue/min and the “Glucose Uptake Rate, subcutaneous white adipose tissue (FDG)” value [3, 5] was 0.0619 ng/g tissue/min and 0.036 ng/g tissue/min and 0.07045 ng/g tissue/min and 0.06392 ng/g tissue/min and 0.06486 ng/g tissue/min and 0.04044 ng/g tissue/min and 0.02401 ng/g tissue/min and 0.1458 ng/g tissue/min. For the same substance, the “blood glucose levels after injection” value (WT animals) was “significantly increased blood glucose levels” and the “plasma insulin after injection” value (WT animals) was “no significant difference”.
